The values that follow come from PMC5402990 (PLoS Neglected Tropical Diseases, 2017).

For data set [1] the following is noted: mouse, in vivo.
Data set [2] in a line: in vitro. Particulars: human.
Data set [3] deals with EBOV VLP trafficking in BSC-1 cells. The data set is classed as cell-based, Grivet monkey.
For data set [4] the following is noted: human, in vivo; cited from earlier work.
Data set [5] is described as follows: in vitro. Particulars: human. The source holds these as a separate data set.
Another data set deals with EBOV GP VLPs. The data set is classed as cell-based, Ebola virus.
A further data set has as its system MARV. Put plainly: organism not typed. The data set is classed as cell-based, Marburg virus.
The next data set is described as follows: in vivo. The conditions noted are these: mouse, ip, 10 mg/kg.
The next data set deals with Huh 7 cells. The conditions noted are these: human.
Data set [6] deals with cholesterol levels in endolysosomes of BSC-1 cells. The data set is classed as cell-based, Grivet monkey.
The test system of the next data set is EBOV trVLPs. The data set is classed as cell-based, Ebola virus.
The subject of a further data set is EBOV/Mak. The data set can be described thus: microbe, parasite or virus in culture. Format: cell-based, Ebola virus. Particulars: for IC50: Zaire ebolavirus.
Data set [7] relates to endosome acidification in BSC-1 cells. The data set is classed as cell-based, Grivet monkey.
Data set [8] is described as follows: in vitro. Particulars: African green monkey.
A further data set concerns cathepsin B and L. Format: cell-based, Grivet monkey. Particulars: pH 5.

Counter-ions that a name gives are not always drawn. Like-named read-outs stand apart in the source and are kept apart here.

Broadly, the IC50 is the concentration that gives 50% inhibition. As a reminder, the Cmax is the maximum level reached in the sampled fluid or tissue. Take `Cc1cccc(/C=N/Nc2cc(N3CCOCC3)nc(OCCc3ccccn3)n2)c1` [Apilimod, apilimod]: the “Cmax relative to IC50 in hMDMs” value in [1] was ~ 250 times. The CC50 in “in vitro [2]” was over 2000 nM; in “in vitro [5]”, 480 ± 80 nM; in the data set on Huh 7 cells, 500 ± 100 nM; in the data set “in vitro [8]” it was over 2000 nM. In addition, the “EBOV VLP trafficking to NPC1+ endolysosomes (Manders colocalization)” value in [3] was “blocked EBOV VLP trafficking to NPC1^+ endolysosomes to a similar extent as nocodazole”. Besides, the “VLP colocalization with EEA1+ endosomes” value in data set [3] is reported as “caused EBOV VLPs to accumulate in EEA1^+ endosomes”. For the same molecule, in data set [3], the “VLP colocalization with NPC1 over time course” value is “at no point during this time course were VLPs seen to associate with NPC1^+ endolysosomes”. In addition, the tolerability in humans entry in [4] is “well-tolerated”. Also, the “EBOV VLP entry” value with EBOV GP VLPs was “blocks EBOV VLP entry into BSC-1 cells with the same approximate dose-dependency as its effects in HEK 293T/17 cells”. Moreover, in the data set with EBOV GP VLPs, the “EBOV particle (VLP) entry” value is reported as “blocked”. In addition, the concentration for half-maximal inhibition (IC50) in the data set on MARV is 10 nM; in the data set on MARV (48 h) it was 10 ± 4 nM; in the data set with MARV (Huh-7, 48 h) it was 140 ± 50 nM; with MARV (Vero C1008) it was 15 to 25 nM; in the data set on MARV (Vero C1008, 48 h), 15 ± 3 nM; in the data set with EBOV/Mak it was 10 nM. The half-inhibitory concentration (IC50) in the data set on EBOV/Mak (48 h) is 9 ± 1 nM; in the data set on EBOV/Mak (Huh-7), 140 nM; in the data set on EBOV/Mak (Huh-7, 48 h) it was 136 ± 40 nM; in the data set with EBOV/Mak (Vero C1008) it was 15 to 25 nM; with EBOV/Mak (Vero C1008, 48 h) it was 25 ± 10 nM. For the same molecule, the “fold higher activity than the positive control” value in the data set on MARV is given as 38- to 1160 fold. For the same molecule, in the data set “in vivo”, the maximum concentration (Cmax) came out at 2530 nM. In [6], the “cholesterol levels in endolysosomes” value was “did not cause a detectable increase”. Also, the “EBOV particle replication (trVLP infection)” value in the data set with EBOV trVLPs is recorded as “blocked”. The “fold higher activity than the positive control, toremifene citrate” value with EBOV/Mak is recorded as 6- to 247 fold. Besides, the “fold less potent in Huh 7 cells” value in the data set on EBOV/Mak was ~ 10 fold. In addition, the “effect on endosome acidification” value in data set [7] was “no detectable effect on endosome acidification”. Besides, the “effect on the activity of cathepsin B and L” value in the data set with cathepsin B and L is “no apparent direct effect”.
Turning to `CO/C1=C\C(C)=C\[C@@H](C)[C@@H](O)[C@@H](C)C/C(C)=C/C=C/[C@H](OC)[C@@H]([C@@H](C)[C@@H](O)[C@H](C)[C@@]2(O)C[C@@H](O)[C@H](C)[C@@H](C(C)C)O2)OC1=O` [Bafilomycin], the “effect on endosome acidification” value in data set [7] is on record as “blocks endosome acidification”.
With `CN(C)CCOc1ccc(/C(=C(/CCCl)c2ccccc2)c2ccccc2)cc1` [Toremifene citrate], the half-maximal inhibitory concentration (IC50) in the data set on MARV was found to be 11600 nM; with MARV (Huh-7) it was 5380 nM; with MARV (Vero C1008), 2360 nM; with EBOV/Mak it was 2470 nM; in the data set on EBOV/Mak (Huh-7), 730 nM; in the data set on EBOV/Mak (Vero C1008) it was 1670 nM.
As to `COC(=O)Nc1nc2ccc(C(=O)c3cccs3)cc2[nH]1` [nocodazole, Nocodazole], the “EBOV VLP trafficking to NPC1+ endolysosomes (Manders colocalization)” value in data set [3] was “blocked EBOV VLP trafficking to NPC1^+ endolysosomes to a similar extent as nocodazole”.
